Experimental data published in patent US7247705B2, “Proteins having glucose transporter activity” (Takeda Pharmaceutical Company Limited, priority 2000, dated 2007).

How the values were obtained:
Format in all cases: cell-based
[1] = target: T1, human SGLT homolog (Homo sapiens, UniProt Q2M3M2, I269M); assay: α-methyl glucose uptake in CHO cell expressing the SGLT homolog; details: CHO cells, NaCl + 10 μM or 100 μM Phlorizin, one-hour incubation, FIG. 3
T1 construct: expressed in transfected cells
T1 sequence (Q2M3M2 8-681 I269M): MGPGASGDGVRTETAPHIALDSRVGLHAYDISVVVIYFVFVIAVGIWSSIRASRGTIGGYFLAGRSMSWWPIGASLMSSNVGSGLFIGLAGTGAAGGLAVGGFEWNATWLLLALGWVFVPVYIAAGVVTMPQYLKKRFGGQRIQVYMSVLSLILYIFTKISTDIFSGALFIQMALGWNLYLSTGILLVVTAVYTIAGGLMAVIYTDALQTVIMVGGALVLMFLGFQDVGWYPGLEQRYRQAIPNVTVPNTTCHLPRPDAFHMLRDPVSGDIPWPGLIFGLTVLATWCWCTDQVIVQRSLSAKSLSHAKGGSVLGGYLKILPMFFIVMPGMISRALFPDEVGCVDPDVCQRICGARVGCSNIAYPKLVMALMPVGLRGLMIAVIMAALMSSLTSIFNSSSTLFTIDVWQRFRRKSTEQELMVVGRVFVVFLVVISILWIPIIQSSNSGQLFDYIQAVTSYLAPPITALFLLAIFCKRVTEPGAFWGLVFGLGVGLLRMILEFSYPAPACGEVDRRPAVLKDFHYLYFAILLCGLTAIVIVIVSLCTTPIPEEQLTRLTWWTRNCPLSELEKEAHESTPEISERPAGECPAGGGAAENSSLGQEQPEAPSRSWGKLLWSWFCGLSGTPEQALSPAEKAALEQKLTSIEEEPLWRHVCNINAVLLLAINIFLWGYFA
Method: Each cDNA of human SGLT1 (NCBI Accession NM_000343) and SGLT2 (NCBI Accession NM_003041) was amplified by PCR from Clontech MTC panel kidney cDNA library, and subcloned into the expression vector for animal cells, pME18S between EcoRI and SpeI sites to prepare pME18S-hSGLT1 and pME18S-hSGLT2. CHO cells (1×10^6 cells) were co-transfected with each 5 μg of plasmids pME18S, pMEI 8S-SGLT homolog, pMEI 8S-hSGLT1, and pME18S-hSGLT2, and the expression vector for animal cells, pRSVneo […] according to the LipofectAMINE PLUS method (GIBCOBRL). These cells were cultured in DMEM containing G418 (500 μg/ml) and 10% FBS for 2 weeks to select the drug-resistant clones.
Total RNAs were extracted from respective G418-resistant CHO cells using RNAeasy Mini Kit (Quiagen). The expression of the SGLT homolog, hSGLT1 and hSGLT2 was quantified using TaqMan Gold RT-PCR Kit (PE Biosystems) according to the TaqMan PCR method to select CHO cells expressing each gene.
Experimental incorporation of α-methyl glucose into the CHO cell expressing the SGLT homolog, the CHO cell expressing hSGLT1, the CHO cell expressing hSGLT2, and the CHO cell having pME18S was carried out according to the method described in Am. J. Physiol. 270:G833-G843 (1996) and J. Clin. Invest. 93:397-404, 1994. […] The radioactivity of ^14C incorporated into the cells was counted with 100 μl of a liquid scintillator added per well.

[2] = target: T2, mouse SGLT homolog (Mus musculus, UniProt Q8VDT1); assay: α-methyl glucose uptake in COS7 cell expressing the mouse SGLT homolog; details: COS7 cells, NaCl + 100 μM or 1 mM phlorizin, one-hour incubation, FIG. 6
T2 construct: expressed in transfected cells; host or cells: COS7 cells, transient, FuGENE6
T2 sequence (Q8VDT1 8-685): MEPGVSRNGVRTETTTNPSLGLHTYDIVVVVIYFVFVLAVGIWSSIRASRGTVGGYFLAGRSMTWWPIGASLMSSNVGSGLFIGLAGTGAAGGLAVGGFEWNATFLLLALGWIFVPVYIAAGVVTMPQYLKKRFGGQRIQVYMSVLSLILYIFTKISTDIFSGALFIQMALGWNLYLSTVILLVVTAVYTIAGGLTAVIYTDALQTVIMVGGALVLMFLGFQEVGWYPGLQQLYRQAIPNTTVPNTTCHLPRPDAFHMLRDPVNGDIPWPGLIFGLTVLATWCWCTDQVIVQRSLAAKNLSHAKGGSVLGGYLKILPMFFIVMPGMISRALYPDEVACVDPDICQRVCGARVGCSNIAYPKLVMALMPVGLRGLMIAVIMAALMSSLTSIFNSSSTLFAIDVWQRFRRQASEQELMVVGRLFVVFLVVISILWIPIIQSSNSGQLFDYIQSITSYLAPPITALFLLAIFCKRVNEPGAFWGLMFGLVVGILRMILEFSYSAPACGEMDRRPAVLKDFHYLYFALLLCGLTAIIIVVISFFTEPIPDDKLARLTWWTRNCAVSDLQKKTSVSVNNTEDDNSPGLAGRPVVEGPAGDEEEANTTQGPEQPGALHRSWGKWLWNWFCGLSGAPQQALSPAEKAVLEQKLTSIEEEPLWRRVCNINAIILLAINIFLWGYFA
Method: (§1) The cDNA of human SGLT1 (NCBI Accession NM_000343) was amplified by PCR from Clontech MTC panel kidney cDNA library, and subcloned into the expression vector for animal cells, pME18S between EcoRI and SpeI sites to prepare pME18S-hSGLT1. COS7 cells (5×10^5 cells) were transfected with each 1 μg of plasmids pME18S, pME18S-hSGLT1, and pME18S-mouse-SGLT-homolog according to the FuGENE6 method (Roche).
(§2) Experimental incorporation of α-methyl glucose into the COS7 cell having pMEI 8S, the COS7 cell expressing hSGLT1, and the COS7 cell expressing the mouse SGLT homolog was carried out according to the method described in Am. J. Physiol. 270:G833-G843 (1996) and J. Clin. Invest. 93:397-404,1994. These cells were plated on a 96-well plate in a cell density of 3×10^4 cells/well and in a volume of 100 μl of DMEM containing 10% FBS per well, and cultured overnight at 37° C. The cells were washed 3 times with 150 μl of a buffer solution (125 mM KCl, 1.2 mM KH2PO4, 2.5 mM CaCl2, 1.2 mM MgSO4, 4 mM Glutamine, 10 mM HEPES (pH 7.2), 0.1 mg/ml BSA), and cultured for an hour in the same buffer solution to remove the rest of glucose. […] The radioactivity of ^14C incorporated into the cells was counted with 100 μl of a liquid scintillator added per well.

[3] = system: rat SGLT homolog; assay: α-methyl glucose uptake in COS7 cell expressing the rat SGLT homolog; details: COS7 cells, NaCl + 100 μM or 1 mM phlorizin, one-hour incubation, FIG. 9
Method: as §1, with “pME18S-rat-SGLT-homolog” for “pME18S-mouse-SGLT-homolog”
as §2, with “pME18S,” for “pMEI 8S,”, “rat” for “mouse”, “93:397-404, 1994.” for “93:397-404,1994.”

[4] = target: T1, human SGLT homolog; assay: α-methyl glucose uptake in COS7 cells carrying pME18S-human-SGLT-homolog (pTB2193); details: NaCl + 100 μM or 1 mM phlorizin, one-hour incubation, FIG. 12
Method: Each 1 μg of the expression vectors for animal cells: pME18S, pME18S-hSGLT2, pME18S-human-SGLT-homolog (pTB2193), pME18S-human-SGLT-homolog-SNP-C1 (pTB2251), pME18S-human-SGLT-homolog-SNP-C2 (pTB2252) and pME18S-human-SGLT-homolog-SNP-C3 (pTB2253), and 3 μl of FuGENE 6 (Roche) were added to Opti-MEM (Gibco-BRL) 100 μl for 15 min at room temperature. These mixtures were then added to COS7 cells (1×10^6 cells/1 ml of DMEM containing 10% FBS/well in 6-well plate) so that each gene was introduced into the cells.
Experimental incorporation of α-methyl glucose into the COS7 cells carrying pME 18S, pME18S-hSGLT2, pME 18S-human-SGLT-homolog (pTB2193), pME18S-human-SGLT-homolog-SNP-C 1 (pTB2251), pME18S-human-SGLT-homolog-SNP-C2 (pTB2252), and pME18S-human-SGLT-homolog-SNP-C3 (pTB2253) was carried out according to the method described in Am. J. Physiol. 270:G833-G843 (1996) and J. Clin. Invest. 93:397-404 (1994).
These gene-transfected cells were cultured for a day, and then plated on a 96-well plate in a cell density of 3×10^4 cells/well and in a volume of 100 μl of DMEM containing 10% FBS per well, and further cultured overnight at 37° C. […] The radioactivity of ^14C incorporated into the cells was counted with 100 μl of a liquid scintillator added per well.

O=C(CCc1ccc(O)cc1)c1c(O)cc(O)cc1O[C@@H]1O[C@H](CO)[C@@H](O)[C@H](O)[C@H]1O [phlorizin]
inhibited: inhibition of Na-dependent α-methyl glucose uptake activity [1] | inhibition of Na+-dependent α-methyl glucose uptake activity [2] | inhibition of Na+-dependent α-methyl glucose uptake activity [3] | inhibition of NaCl-dependent glucose uptake activity [4]
